The record followed here is patent US20240383852A1, “ANTI-VIRAL COMPOUNDS” (INFEX Therapeutics Limited, priority 2021, published 2024).

The IC50 is the concentration that gives 50% inhibition.

The target of series [1] is T1, SARS-CoV-2 PLpro (Severe acute respiratory syndrome coronavirus 2, UniProt P0DTD1).
T1 construct: containing 60 nM papain-like protease
Nature of the series: biochemical.

For series [2], the system named is human Hep G2 cells (ATCC HB-8065). Nature of the series: Cytotoxicity in Hep G2 cells (CellTiter-Glo). Type of series: cell-based. In general terms: Cellular ATP, detected with luciferase, serves as a proxy for viable cell number.
The mark [3] stands for this setting: 60 nM papain-like protease, 50 μM Z-RLRGG-AMC, pH 7.5, 37° C., read-out: SARS-CoV-2 PLpro IC50.
Where [4] appears, read: Hep G2 cells, 100 μM test article, 24-hour exposure.

Counter-ions that a name gives are not always drawn. Like-named read-outs stand apart in the source and are kept apart here.

For the compound `COc1ccc([C@@H](C)NC(=O)c2cc(N3CC4(CNC4)C3)ccc2C)cc1-c1cnn(C)c1` [Example 271, 5-(2,6-Diazaspiro[3.3]heptan-2-yl)-N-[(1R)-1-[4-methoxy-3-(1-methylpyrazol-4-yl)phenyl]ethyl]-2-methyl-benzamide], the IC50 in series [1] (setting [3]) is < 5000 nM. The “% Cell Viability” value in series [2] (setting [4]) was 95.2%.

Take `Cc1ccc(N2CC3(CNC3)C2)cc1C(=O)N[C@H](C)c1cccc2ccccc12` [Example 17, 5-(2,6-Diazaspiro[3.3]heptan-2-yl)-2-methyl-N-[(1R)-1-(1-naphthyl)ethyl]benzamide]: the IC50 in series [1] (setting [3]) was < 5000 nM. Moreover, in series [2] (setting [4]), the “% Cell Viability” value amounted to 34.7%.

For `COc1cc(-c2cnn(C)c2)cc([C@@H](C)NC(=O)c2cc(C3CCN(C)CC3)ccc2C)c1` [Example 302, N-[(1R)-1-[3-Methoxy-5-(1-methylpyrazol-4-yl)phenyl]ethyl]-2-methyl-5-(1-methyl-4-piperidyl)benzamide], the IC50 in series [1] (setting [3]) is < 2000 nM. Further, the “% Cell Viability” value in series [2] (setting [4]) was 67.1%.

For `Cc1ccc(N2CC3(CN(CCO)C3)C2)cc1C(=O)N[C@H](C)c1cccc2ccccc12` [Example 20, 5-[6-(2-Hydroxyethyl)-2,6-diazaspiro[3.3]heptan-2-yl]-2-methyl-N-[(1R)-1-(1-naphthyl)ethyl]benzamide], the IC50 in series [1] (setting [3]) was < 5000 nM. The “% Cell Viability” value in series [2] (setting [4]) is given as 94.3%.

`Cc1ccc(N2CCN(C)CC2)cc1C(=O)N[C@H](C)c1cccc(-c2c(C)nn(C)c2C)c1` [Example 62, 2-Methyl-5-(4-methylpiperazin-1-yl)-N-[(1R)-1-[3-(1,3,5-trimethylpyrazol-4-yl)phenyl]ethyl]benzamide]: the IC50 in series [1] (setting [3]) was < 2000 nM. For the same compound, in series [2] (setting [4]), the “% Cell Viability” value was determined as 56.6%.

`Cc1ccc(N2CCN(C)CC2)cc1C(=O)N[C@H](C)c1cccc(-c2ccsc2)c1` [Example 50, 2-Methyl-5-(4-methylpiperazin-1-yl)-N-[(1R)-1-[3-(3-thienyl)phenyl]ethyl]benzamide]: in series [1] (setting [3]), the IC50 was < 2000 nM. Further, the “% Cell Viability” value in series [2] (setting [4]) was 2.3%.

For the compound `COc1cc(-c2cnn(C)c2)cc([C@@H](C)NC(=O)c2cc(N3CC4CN(C)CC4C3)ccc2C)c1` (stereo partly drawn) [Example 242, N-[(1R)-1-[3-Methoxy-5-(1-methylpyrazol-4-yl)phenyl]ethyl]-2-methyl-5-(2-methyl-1,3,3a,4,6,6a-hexahydropyrrolo[3,4-c]pyrrol-5-yl)benzamide], in series [1] (setting [3]), the IC50 is < 2000 nM. Moreover, the “% Cell Viability” value in series [2] (setting [4]) is 62.4%.

For the compound `Cc1ccc(N2CCN(C)CC2)cc1C(=O)N[C@H](C)c1ccc(C)c(-c2cnn(C)c2)c1` [Example 228, 2-Methyl-N-[(1R)-1-[4-methyl-3-(1-methylpyrazol-4-yl)phenyl]ethyl]-5-(4-methylpiperazin-1-yl)benzamide], in series [1] (setting [3]), the IC50 is < 2000 nM. For the same compound, the “% Cell Viability” value in series [2] (setting [4]) is listed as 69.9%.

Regarding `COc1cc(-c2cn(C)nc2C)cc([C@@H](C)NC(=O)c2cc(N3CC4CNCC4C3)ccc2C)c1` (stereo partly drawn) [Example 268, 5-(2,3,3a,4,6,6a-Hexahydro-1H-pyrrolo[3,4-c]pyrrol-5-yl)-N-[(1R)-1-[3-(1,3-dimethylpyrazol-4-yl)-5-methoxy-phenyl]ethyl]-2-methyl-benzamide], in series [1] (setting [3]), the IC50 was < 2000 nM. In addition, in series [2] (setting [4]), the “% Cell Viability” value was found to be 75.0%.

On to `COc1ccc([C@@H](C)NC(=O)c2cc(N3CCN(C)CC3)ccc2C)cc1-c1cnn(C)c1C` [Example 246, N-[(1R)-1-[3-(1,5-Dimethylpyrazol-4-yl)-4-methoxy-phenyl]ethyl]-2-methyl-5-(4-methylpiperazin-1-yl)benzamide], for which the IC50 in series [1] (setting [3]) was < 2000 nM. Also, the “% Cell Viability” value in series [2] (setting [4]) was 81.4%.

Take `Cc1ccc(N2CCN(C)CC2)cc1C(=O)N[C@H](C)c1cccc(-c2ccc(CO)s2)c1` [Example 79, N-[(1R)-1-[3-[5-(Hydroxymethyl)-2-thienyl]phenyl]ethyl]-2-methyl-5-(4-methylpiperazin-1-yl)benzamide]: the IC50 in series [1] (setting [3]) was < 2000 nM. The “% Cell Viability” value in series [2] (setting [4]) was determined as 52.9%.

In the case of `Cc1ccc(N2CCN(CCO)CC2)cc1C(=O)N[C@H](C)c1cccc(-c2cnn(C)c2)c1` [Example 112, 5-[4-(2-Hydroxyethyl)piperazin-1-yl]-2-methyl-N-[(1R)-1-[3-(1-methylpyrazol-4-yl)phenyl]ethyl]benzamide], in series [1] (setting [3]), the IC50 was < 2000 nM. In addition, the “% Cell Viability” value in series [2] (setting [4]) stood at 41.0%.

As for `CNC(=O)c1cccc(-c2cccc([C@@H](C)NC(=O)c3cc(N4CCN(C)CC4)ccc3C)c2)c1` [Example 46, 2-Methyl-N-[(1R)-1-[3-[3-(methylcarbamoyl)phenyl]phenyl]ethyl]-5-(4-methylpiperazin-1-yl)benzamide], the IC50 in series [1] (setting [3]) is < 2000 nM. Moreover, the “% Cell Viability” value in series [2] (setting [4]) was 86.9%.

In the case of `Cc1ccc(N2CCN(C)CC2)cc1C(=O)N[C@H](C)c1cccc(-c2cccc(C(N)=O)c2)c1` [Example 43, N-[(1R)-1-[3-(3-Carbamoylphenyl)phenyl]ethyl]-2-methyl-5-(4-methylpiperazin-1-yl)benzamide], the IC50 in series [1] (setting [3]) was < 2000 nM. In series [2] (setting [4]), the “% Cell Viability” value came out at 71.3%.

For `COc1ccc([C@@H](C)NC(=O)c2cc(N3CCN(C)CC3)ccc2C)cc1OCCO` [Example 294, N-[(1R)-1-[3-(2-Hydroxyethoxy)-4-methoxy-phenyl]ethyl]-2-methyl-5-(4-methylpiperazin-1-yl)benzamide], the IC50 in series [1] (setting [3]) was < 5000 nM. Moreover, in series [2] (setting [4]), the “% Cell Viability” value is 120.9%.

Consider `COc1ccc([C@@H](C)NC(=O)c2cc(N3CCN(C)CC3)ccc2C)cc1OC` [Example 23, N-[(1R)-1-(3,4-Dimethoxyphenyl)ethyl]-2-methyl-5-(4-methylpiperazin-1-yl)benzamide], for which the IC50 in series [1] (setting [3]) is < 2000 nM. Also, in series [2] (setting [4]), the “% Cell Viability” value came to 87.3%.

Consider `Cc1ccc(N2CCN(C)CC2)cc1C(=O)N[C@H](C)c1cccc(Br)c1` [Example 22, N-[(1R)-1-(3-Bromophenyl)ethyl]-2-methyl-5-(4-methylpiperazin-1-yl)benzamide], for which the IC50 in series [1] (setting [3]) was < 5000 nM. Also, in series [2] (setting [4]), the “% Cell Viability” value is given as 65.5%.

With `Cc1ccc(N2CCN(C)CC2)cc1C(=O)N[C@H](C)c1cccc(-c2ccc(C(O)CO)cc2)c1` (stereo partly drawn) [Example 70, N-[(1R)-1-[3-[4-(1,2-Dihydroxyethyl)phenyl]phenyl]ethyl]-2-methyl-5-(4-methylpiperazin-1-yl)benzamide], in series [1] (setting [3]), the IC50 is < 2000 nM. The “% Cell Viability” value in series [2] (setting [4]) was determined as 59.1%.

On to `Cc1ccc(N2CCN(C)CC2)cc1C(=O)N[C@H](C)c1cccc(N2CC(CO)OC2=O)c1` (stereo partly drawn) [Example 107, N-[(1R)-1-[3-[5-(Hydroxymethyl)-2-oxo-oxazolidin-3-yl]phenyl]ethyl]-2-methyl-5-(4-methylpiperazin-1-yl)benzamide], for which the IC50 in series [1] (setting [3]) is < 5000 nM. Besides, the “% Cell Viability” value in series [2] (setting [4]) amounted to 100.7%.

`Cc1ccc([C@@H](C)NC(=O)c2cc(N3CCN(C)CC3)ccc2C)cc1Br` [Example 196, N-[(1R)-1-(3-Bromo-4-methyl-phenyl)ethyl]-2-methyl-5-(4-methylpiperazin-1-yl)benzamide]: the IC50 in series [1] (setting [3]) is < 2000 nM. Further, in series [2] (setting [4]), the “% Cell Viability” value turned out to be 4.7%.

With `CCn1cc(-c2cc([C@@H](C)NC(=O)c3cc(N4CCN(C)CC4)ccc3C)ccc2OC)cn1` [Example 213, N-[(1R)-1-[3-(1-Ethylpyrazol-4-yl)-4-methoxy-phenyl]ethyl]-2-methyl-5-(4-methylpiperazin-1-yl)benzamide], in series [1] (setting [3]), the IC50 was < 2000 nM. Also, in series [2] (setting [4]), the “% Cell Viability” value worked out at 67.2%.

For `Cc1ccc(N2CCN(C)CC2)cc1C(=O)N[C@H](C)c1cccc(-c2cccc(C(=O)NCCN(C)C)c2)c1` [Example 94, N-[(1R)-1-[3-[3-[2-(Dimethylamino)ethylcarbamoyl]phenyl]phenyl]ethyl]-2-methyl-5-(4-methylpiperazin-1-yl)benzamide], the IC50 in series [1] (setting [3]) was < 2000 nM. The “% Cell Viability” value in series [2] (setting [4]) was 17.3%.

Take `Cc1ccc(N2CCN(C)CC2)cc1C(=O)N[C@H](C)c1cccc(-c2cccc(C(=O)NC[C@@H](O)CO)c2)c1` [Example 90]: the IC50 in series [1] (setting [3]) was < 2000 nM. For the same compound, the “% Cell Viability” value in series [2] (setting [4]) is 103.1%.

Regarding `C[C@@H](NC(=O)c1cc(N2CCNCC2)ccc1Cl)c1cccc2ccccc12` [Example 134, 2-Chloro-N-[(1R)-1-(1-naphthyl)ethyl]-5-piperazin-1-yl-benzamide], the IC50 in series [1] (setting [3]) is < 2000 nM. Moreover, the “% Cell Viability” value in series [2] (setting [4]) worked out at 0.8%.

In the case of `Cc1ccc(N2CCN(C)CC2)cc1C(=O)N[C@H](C)c1cccc(-c2c(C)n[nH]c2C)c1` [Example 58, N-[(1R)-1-[3-(3,5-Dimethyl-1H-pyrazol-4-yl)phenyl]ethyl]-2-methyl-5-(4-methylpiperazin-1-yl)benzamide], the IC50 in series [1] (setting [3]) is < 2000 nM. Besides, in series [2] (setting [4]), the “% Cell Viability” value is 86.7%.

`CNCCN(C)C(=O)c1ccc(-c2cccc([C@@H](C)NC(=O)c3cc(N4CCN(C)CC4)ccc3C)c2)cc1` [Example 75, 2-Methyl-N-[(1R)-1-[3-[4-[methyl-[2-(methylamino)ethyl]carbamoyl]phenyl]phenyl]ethyl]-5-(4-methylpiperazin-1-yl)benzamide]: the IC50 in series [1] (setting [3]) is < 2000 nM. The “% Cell Viability” value in series [2] (setting [4]) was found to be 123.6%.

Turning to `COc1cc(-c2cn(C)nc2C)cc([C@@H](C)NC(=O)c2cc(N3C[C@H]4CC[C@@H](C3)N4)ccc2C)c1` [Example 270, 5-[(1S,5R)-3,8-Diazabicyclo[3.2.1]octan-3-yl]-N-[(1R)-1-[3-(1,3-dimethylpyrazol-4-yl)-5-methoxy-phenyl]ethyl]-2-methyl-benzamide], the IC50 in series [1] is < 2000 nM. For the same compound, the “% Cell Viability” value in series [2] (human, 24 h, 100 μM) is reported as 22.6%.

`C[C@@H](NC(=O)c1cc(C2CCNC2)ccc1Cl)c1cccc2ccccc12` (stereo partly drawn) [Example 147, 2-chloro-N-[(1R)-1-(1-naphthyl)ethyl]-5-pyrrolidin-3-yl-benzamide]: in series [1] (setting [3]), the IC50 is < 5000 nM. Further, the “% Cell Viability” value in series [2] (setting [4]) is reported as 0.8%.

As for `C[C@@H](NC(=O)c1cc(C2=CCNC2)ccc1Cl)c1cccc2ccccc12` [Example 146, 2-Chloro-5-(2,5-dihydro-1H-pyrrol-3-yl)-N-[(1R)-1-(1-naphthyl)ethyl]benzamide Hydrochloride Salt], the IC50 in series [1] (setting [3]) is < 2000 nM. Besides, the “% Cell Viability” value in series [2] (setting [4]) is listed as 0.2%.
